These results are taken from article PMC8352872, “Biochemical and structural studies of target lectin SapL1 from the emerging opportunistic microfungus Scedosporium apiospermum” (Scientific Reports, 2021).

Data set [1] has as its target T1, SapL1 (Scedosporium apiospermum, UniProt A0A084FYP2).
T1 construct: gene SAPIO_CDS9261; carbohydrate recognition domain, residues 75-369
As to the kind of experiment: ITC (stoichiometry fixed to […]). It counts as binding.

In data set [2] the target is T1, SapL1. As to the kind of experiment: (X-ray) and ITC (stoichiometry fixed to […]). The format is binding.
Data set [3] deals with the molecule itself. As to the kind of experiment: dynamic light scattering; protein at 1 mg/mL in 50 mM Tris-HCl, 100 mM NaCl, pH 8.5, measured in triplicate after centrifugation; data not shown.

For the molecule `C[C@@H]1OC(O)[C@@H](O)[C@H](O)[C@@H]1O` (stereo partly drawn) [L-fucose], the Kd (usually the free concentration of one partner at which half of the binding sites on the other are occupied at equilibrium, for simple one-to-one binding) in data set [1] is 225 ± 1.52 µM.
`CO[C@@H]1O[C@@H](C)[C@@H](O)[C@@H](O)[C@@H]1O` [α-methyl-L-fucoside, methyl-α-L-fucopyranoside] showed a Kd in data set [2] of 190 ± 1.44 µM.

B1: Scedosporium apiospermum Lectin 1 (SapL1), carbohydrate recognition domain, residues 75-369 (domain or fragment)
chain: MSGVLQISFPAGIAAIRNNSSLRVYEAALDGGVREAQYEGRWAGGKPDNVIATGKIGTPIAATSVGFQYIRVYYVGADNKAREACWDGKGWYTGAFVKDVAPYSSIGAVFLGKNIVVRVYTQNHDNTIQEWVWDSPSTGWTAGANFGAALPGTAIAATSWGAGPYHIRVYFQDTNRNVIESGWDGSGWYTGGLKISNQSPRASLGATSWGESGSSLGIRLYYATQDNLIKEKAWDGGGGWYDGGFQQRSIPGSRVAAIPLPVLRVYLQNGTEVSGITEYAWNSGWVVGQAVLPPA
notes: the first 74 residues of the annotated protein, which the authors suspect to be a misannotation, are left out; In the crystal all 295 amino acids are visible except the N-terminal methionine; also called hypothetical protein XP_016640003.1; source: E. coli BL21trxB (DE3), pProNde vector, purified (IMAC, TEV cleavage, second His-trap pass); not shown: His6, N-terminal, cleaved
B1: in data set [3], the stoichiometry N (as a rule, a count of units in the complex or per binding partner) amounted to 2.
